From EP4755880A1, “SUBSTITUTED NITROGEN-CONTAINING BICYCLIC COMPOUND AND USE THEREOF” (Sunshine Lake Pharma Co., Ltd., priority 2023, dated 2025) come the findings set out here.

One assay has as its system DLD-1 BRCA2(-/-) cells. The assay can be described thus: Inhibition of proliferation of DLD-1 BRCA2(-/-) cells (CTG method). The format is cell-based. The note with it: Homo sapiens, DLD-1, 168 h; 7 days incubation, CellTiter-Glo. The method, then:
• 1. Cell Pretreatment: DLD-1 BRCA2(-/-) cells were cultured in growth medium 1640 + 10% FBS (fetal bovine serum) + 1% Penicillin-Streptomycin. Cells in the logarithmic growth phase were digested with trypsin-EDTA, centrifuged, and resuspended. DLD-1 BRCA2(-/-) cells were seeded at 1,000 cells/well in sterile 96-well opaque plates, 75 µl per well. After seeding, the cell culture plates were incubated overnight at 37 °C with 5% CO2 before adhesion, followed by treatment with the test compounds. • 2. DLD-1 BRCA2(-/-) Cell Drug Treatment: The test compound was prepared as a 10 mM stock solution using DMSO. The test compound was then diluted to a 4× working solution using growth medium (starting at 40 µM, with 9 4-fold dilutions). 25 µl of 4× working solution was added to each well to achieve final concentrations of 10000, 2500, 625, 156, 39, 9.7, 2.4, 0.61, and 0.152 nM, respectively. Blank control wells containing the same DMSO concentration were also included, with three replicates for each concentration. After adding the test compound, the cells were incubated at 37 °C with 5% CO2 for 7 days. • 3. After incubation, 100 µl of CellTiter-Glo® Reagent was added to each well, and […] intensity was measured. A curve was fitted using GraphPad software, and the IC50 value for cell proliferation inhibition was calculated.
A general note: Cellular ATP, detected with luciferase, serves as a proxy for viable cell number.

Another assay deals with PARP2 (Homo sapiens, UniProt Q9UGN5). The assay can be described thus: biochemical.
The target of a further assay is PARP1 (Homo sapiens, UniProt P09874). The assay is described as follows: Inhibition of PARP1 enzyme activity (ELISA, chemiluminescence). The format is biochemical. The note with it: for IC50: ELISA, histone-coated plate, NAD+, 60 min at 25 °C; for Selectivity PARP2/PARP1: ratio of PARP2 IC50 to PARP1 IC50. Background: An ELISA detects its analyte on a solid surface through an enzyme-linked reagent.

The subject of a further assay is MDA-MB-436 cells. The assay can be described thus: Inhibition of proliferation of MDA-MB-436 cells (CellTiter-Glo). The assay is classed as cell-based. The note with it: Homo sapiens, MDA-MB-436, 168 h, 7 days incubation. The method, then: • 1. Cell Pretreatment: MDA-MB-436 cells were cultured in DMEM + 10% FBS + 1% penicillin-dip antibiotics + 1% ITS + 16 µg/ml glutathione. Cells in the logarithmic growth phase were digested with trypsin-EDTA, centrifuged and resuspended, and then seeded at a rate of 500-1000 cells/well in sterile 96-well opaque plates, 90 µl per well. After seeding, the cell culture plates were incubated overnight at 37°C with 5% CO2 before drug treatment. • 2. Drug treatment of MDA-MB-436 cells: The test compound was prepared as a 10 mM stock solution using DMSO. The drug was then diluted to a 10× working solution using growth medium (the compound was started at 100 µM and diluted 4-fold to achieve 9 concentrations). 10 µl of the 10× working solution was added to each well to achieve final drug concentrations of 10000, 2500, 625, 156, 39, 9.7, 2.4, 0.61, and 0.152 nM, respectively. Blank control wells containing the same DMSO concentration were also included, with three replicates for each concentration. After drug addition, the cells were incubated at 37°C with 5% CO2 for 7 days. • 3. After incubation, 100 µl of CellTiter-Glo® Reagent was added to each well, and luminescence was measured. The IC50 value of cell proliferation inhibition was calculated using GraphPad software to fit the curve. Table E: Results of the inhibitory effect of the compound of this invention on the proliferation of MDA-MB-436 cells.

Where only a bound is given, the exact number is not on record here.

Chain of PARP2 (Q9UGN5 whole entry): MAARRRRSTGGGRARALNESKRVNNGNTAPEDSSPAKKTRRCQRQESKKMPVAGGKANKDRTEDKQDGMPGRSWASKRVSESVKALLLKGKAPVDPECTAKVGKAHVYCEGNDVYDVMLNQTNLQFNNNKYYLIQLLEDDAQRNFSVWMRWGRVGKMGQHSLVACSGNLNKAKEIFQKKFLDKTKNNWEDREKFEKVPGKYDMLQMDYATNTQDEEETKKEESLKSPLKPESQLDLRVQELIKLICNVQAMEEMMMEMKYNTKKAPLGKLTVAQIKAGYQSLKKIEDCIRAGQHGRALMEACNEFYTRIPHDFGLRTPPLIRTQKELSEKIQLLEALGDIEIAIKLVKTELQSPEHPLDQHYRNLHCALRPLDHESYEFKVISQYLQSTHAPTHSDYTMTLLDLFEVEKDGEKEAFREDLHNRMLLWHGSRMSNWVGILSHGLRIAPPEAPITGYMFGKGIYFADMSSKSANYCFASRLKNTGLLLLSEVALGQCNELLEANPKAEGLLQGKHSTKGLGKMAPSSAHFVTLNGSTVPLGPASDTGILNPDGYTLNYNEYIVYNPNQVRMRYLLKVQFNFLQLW
Chain of PARP1 (P09874 whole entry): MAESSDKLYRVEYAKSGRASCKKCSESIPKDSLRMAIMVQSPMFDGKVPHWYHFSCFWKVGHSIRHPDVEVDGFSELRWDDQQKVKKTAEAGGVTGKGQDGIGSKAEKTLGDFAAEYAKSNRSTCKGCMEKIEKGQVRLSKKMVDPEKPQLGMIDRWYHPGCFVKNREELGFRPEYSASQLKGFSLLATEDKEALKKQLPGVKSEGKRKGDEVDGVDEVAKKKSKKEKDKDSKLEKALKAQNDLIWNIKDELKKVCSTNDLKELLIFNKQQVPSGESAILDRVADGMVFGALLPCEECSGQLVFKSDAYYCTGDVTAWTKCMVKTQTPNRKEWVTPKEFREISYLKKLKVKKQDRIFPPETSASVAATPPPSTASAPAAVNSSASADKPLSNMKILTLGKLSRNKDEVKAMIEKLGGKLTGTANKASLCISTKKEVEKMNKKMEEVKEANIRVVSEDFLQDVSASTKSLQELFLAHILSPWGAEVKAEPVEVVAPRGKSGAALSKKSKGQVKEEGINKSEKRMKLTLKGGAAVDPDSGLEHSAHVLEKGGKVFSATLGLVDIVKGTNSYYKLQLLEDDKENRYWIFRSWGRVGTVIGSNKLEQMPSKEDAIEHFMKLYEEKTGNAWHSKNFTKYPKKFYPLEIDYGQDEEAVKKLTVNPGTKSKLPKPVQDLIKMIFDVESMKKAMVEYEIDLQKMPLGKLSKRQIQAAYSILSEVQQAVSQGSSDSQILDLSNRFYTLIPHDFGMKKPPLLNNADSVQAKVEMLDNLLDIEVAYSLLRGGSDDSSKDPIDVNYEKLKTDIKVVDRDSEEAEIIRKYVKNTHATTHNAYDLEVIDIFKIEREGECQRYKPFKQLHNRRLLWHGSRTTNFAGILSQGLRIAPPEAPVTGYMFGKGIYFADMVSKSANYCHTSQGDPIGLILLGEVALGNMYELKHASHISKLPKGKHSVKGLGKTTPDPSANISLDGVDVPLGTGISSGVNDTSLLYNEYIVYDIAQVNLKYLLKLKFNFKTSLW
Experimental for PARP1: Experimental Objective: To evaluate the inhibitory effect of the compounds of the present invention on the enzyme activities of PARP1 and PARP2 using ELISA.
• 1. histone-coated 384-well plates was prepared: 25 µL of histone solution was added to each well and incubated overnight at 4 °C. • 2. PBST buffer, blocking buffer (PBS buffer with 5% BSA and 0.05% Tween-20 added) and detection buffer (20 mM HEPES pH 7.5 + 100 mM NaCl + 2 mM DTT + 0.002% Tween-20 + 0.1% BSA) were prepared. • 3. The histone-coated 3 84-well plate was washed three times with PBST buffer, blocked at room temperature with 50 µL blocking buffer for 1 hour, and then washed three times with PBST buffer. • 4. Test compounds were prepared as 2000-fold stock solutions in DMSO. 50 nL of the stock solution was mixed with 19.95 µL detection buffer, and 5 µL of the gradient-diluted test compound was transferred to each well. • 5. Enzymatic reaction (PARP1): PARP1 & DNA mix was pre-incubated at 25 °C for 10 minutes. 10 µL of the PARP1 & DNA mix was added to each well and incubated with the test compound at room temperature for 10 minutes. […] Finally, the 384-well plate was washed three times with PBST buffer. Enzymatic reaction (PARP2): PARP2 was pre-incubated at 25 °C for 10 minutes. 10 µL of PARP2 was added to each well and incubated with the test compound at room temperature for 10 minutes. […] Finally, the 384-well plate was washed three times with PBST buffer. • 6. Detection (PARP1): 20 µL of anti-Poly/Mono-ADP Ribose Rabbit mAb was added and incubated at room temperature for 1.5 hours, followed by three washes of the 384-well plate with PBST buffer. Then, 20 µL of diluted anti-rabbit IgG, HRP-linked Antibody (diluted 1:2000 in blocking buffer) was added and incubated at room temperature for 1 hour. After washing the plate three times with PBST buffer, 25 µL of a 1:1 mixture of Femto-ECL Substrate A and Femto-ECL Substrate B was added. Detection (PARP2): 25 µL of Strep-HRP was added and incubated at room temperature for 1 hour, followed by three washes of the 384-well plate with PBS buffer. Then, 25 µL of a 1:1 mixture of Femto-ECL Substrate A and Femto-ECL Substrate B was added. • 7. Chemiluminescence intensity was measured using an Envision multimode microplate reader. • 8. Data Processing
The inhibition rate was calculated in Excel using formula (1). inh% = (Max−Signal)/(Max−Min)*100 [formula]
The IC50 value was obtained by fitting the data in XL-Fit using formula (2). Y = bottom + (top−bottom)/(1+(IC50/X)*HillSlope); [formula] wherein Y is the inhibition percentage and X is the compound concentration.

Usually IC50 stands for the concentration needed to halve the response being measured. Turning to `CNC(=O)c1ccc(N2CCN(Cc3cc(-c4ccccc4F)c4nc(C)c(=O)[nH]c4c3)CC2)c(F)n1` [Example 8, 6-fluoro-5-(4-((8-(2-fluorophenyl)-2-methyl-3-oxo-3,4-dihydroquinoxalin-6-yl)methyl)piperazin-1-yl)-N-methylpicolinamide], the 50% inhibitory concentration (IC50) with DLD-1 BRCA2(-/-) cells was 0.0322 µM; at PARP2, 2.69 µM; against PARP1, 4.1 nM; with MDA-MB-436 cells it was 0.0236 µM. In addition, the “Selectivity PARP2/PARP1” value on PARP1 was 657.2.
For `CNC(=O)c1ccc(N2CCN(Cc3cc(-c4cccc(F)c4)c4nc(C)c(=O)[nH]c4c3)CC2)c(F)n1` [Example 9, 6-fluoro-5-(4-((8-(3-fluorophenyl)-2-methyl-3-oxo-3,4-dihydroquinoxalin-6-yl)methyl)piperazin-1-yl)-N-methylpicolinamide], in that order: 0.0111 µM, 1.14 µM, 1.61 nM, 0.0081 µM and 705.3.
`CNC(=O)c1ccc(N2CCN(Cc3cc(-c4cccnc4)c4nc(C)c(=O)[nH]c4c3)CC2)c(F)n1` [Example 11, 6-fluoro-N-methyl-5-(4-((2-methyl-3-oxo-8-(pyridin-3-yl)-3,4-dihydroquinoxalin-6-yl)methyl)piperazin-1-yl)picolinamide]: the IC50 with DLD-1 BRCA2(-/-) cells was determined as 0.0129 µM; at PARP2, 0.676 µM; on PARP1, 3.01 nM; in the assay with MDA-MB-436 cells, 0.0107 µM. Also, the “Selectivity PARP2/PARP1” value on PARP1 was found to be 224.6.
For `CNC(=O)c1ccc(N2CCN(Cc3cc(OC4CC(F)(F)C4)c4nc(C)c(=O)[nH]c4c3)CC2)c(F)n1` [Example 18, 5-(4-((8-(3,3-difluorocyclobutoxy)-2-methyl-3-oxo-3,4-dihydroquinoxalin-6-yl)methyl)piperazin-1-yl)-6-fluoro-N-methylpicolinamide], in that order: 0.0079 µM, 0.0933 µM, 1.7 nM, 0.0009 µM and 54.7.
`CNC(=O)c1ccc(N2CCN(Cc3cc(C4CC4)c4nc(C)c(=O)[nH]c4c3F)CC2)c(F)n1` [Example 19, 5-(4-((8-cyclopropyl-5-fluoro-2-methyl-3-oxo-3,4-dihydroquinoxalin-6-yl)methyl)piperazin-1-yl)-6-fluoro-N-methylpicolinamide]: the IC50 with DLD-1 BRCA2(-/-) cells stood at 0.0015 µM; at PARP2, 0.07 µM; against PARP1, 0.7 nM; with MDA-MB-436 cells, 0.0042 µM. At PARP1, the “Selectivity PARP2/PARP1” value turned out to be 107.3.
`C#Cc1cc(CN2CCN(c3ccc(C(=O)NC)nc3F)CC2)cc2[nH]c(=O)c(C)nc12` [Example 20, 5-(4-((8-ethynyl-2-methyl-3-oxo-3,4-dihydroquinoxalin-6-yl)methyl)piperazin-1-yl)-6-fluoro-N-methylpicolinamide]: the IC50 came to 0.0024 µM in the assay with DLD-1 BRCA2(-/-) cells, 0.0689 µM against PARP2, 0.6 nM at PARP1 and 0.0033 µM with MDA-MB-436 cells. The “Selectivity PARP2/PARP1” value at PARP1 is reported as 124.8.
Taken in the same sequence, the figures for `CC#Cc1cc(CN2CCN(c3ccc(C(=O)NC)nc3F)CC2)c(F)c2[nH]c(=O)c(C)nc12` [Example 21, 6-fluoro-5-(4-((5-fluoro-2-methyl-3-oxo-8-(prop-1-yn-1-yl)-3,4-dihydroquinoxalin-6-yl)methyl)piperazin-1-yl)-N-methylpicolinamide] were 0.0222 µM, over 10 µM, 6.7 nM, 0.0229 µM and over 1480.
For `CNC(=O)c1ccc(N2CCN(Cc3cc(Oc4ccc(C#N)cc4)c4nc(C)c(=O)[nH]c4c3)CC2)c(F)n1` [Example 32, 5-(4-((8-(4-cyanophenoxy)-2-methyl-3-oxo-3,4-dihydroquinoxalin-6-yl)methyl)piperazin-1-yl)-6-fluoro-N-methylpicolinamide], in that order: 0.0688 µM, over 10 µM, 2.8 nM, 0.0401 µM and over 833.
